Values after ≈ are worked out from the molar mass of the structure shown. Where two headings read alike, the source gives them in different places.
Key:
Type in all cases: cell-based
[1] = tested on: Enterococcus faecalis ATCC 29212; assay: Broth microdilution MIC, E. faecalis ATCC 29212; conditions: read-out: MIC E. faecalis ATCC 29212
Procedure, shortened: (§1)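 Two-fold dilutions from 64 to 0.0625 μg/ml final, 1% DMSO, were inoculated at ~5.0×10^5 cfu/ml in the strain's test medium and kept 20 h at 37 °C in ambient atmosphere. Colonies were grown on MHA, with S. pneumoniae on blood agar under 5% CO2.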

[2] = tested on: Escherichia coli ATCC 25922; assay: Broth microdilution MIC, E. coli ATCC 25922 (MHIIB w & w/o 4 mM EDTA); conditions: for MIC: Escherichia coli, read-out: MIC E. coli ATCC 25922; for MIC E. coli ATCC 25922 + 4 mM EDTA: with 4 mM EDTA
Procedure, shortened: as §1

[3] = tested on: Staphylococcus aureus ATCC 29213 (MSSA); assay: Broth microdilution MIC, S. aureus ATCC 29213 (MSSA); conditions: read-out: MIC S. aureus ATCC 29213 (MSSA)
Procedure, shortened: as §1

[4] = tested on: Enterococcus faecium ATCC 700221 (VRE); assay: Broth microdilution MIC, E. faecium ATCC 700221 (VRE); set-up: MIC E. faecium ATCC 700221 (VRE): unit: ug/mL; conditions: for MIC: Enterococcus faecium, read-out: MIC E. faecium ATCC 700221 (VRE)
Procedure, shortened: as §1

[5] = tested on: Streptococcus pneumoniae ATCC 49619; assay: Broth microdilution MIC, S. pneumoniae ATCC 49619; conditions: read-out: MIC S. pneumoniae ATCC 49619
Procedure, shortened: as §1

[6] = tested on: Staphylococcus aureus NRS384 (MRSA); assay: Broth microdilution MIC, S. aureus NRS384 (MRSA); set-up: MIC NRS 384 (MRSA): unit not given here; conditions: for MIC: Staphylococcus aureus, read-out: MIC NRS 384 (MRSA)
Procedure, shortened: as §1

[7] = tested on: Bacillus subtilis ATCC 6633; assay: Broth microdilution MIC, B. subtilis ATCC 6633; conditions: read-out: MIC B. subtilis ATCC 6633
Procedure, shortened: as §1

[8] = ATCC29212, broth microdilution, 37° C., 20 hours
[9] = ATCC25922, without EDTA, broth microdilution, 37° C., 20 hours
[10] = broth microdilution, 37° C., 20 hours
[11] = ATCC49619, broth microdilution, 37° C., 20 hours
[12] = ATCC6633, broth microdilution, 37° C., 20 hours

SMILES | MIC [1, 8] | MIC [2, 9] | MIC E. coli ATCC 25922 + 4 mM EDTA [2, 10] | MIC [3, 10] | MIC [4, 10] | MIC [5, 11] | MIC [6, 10] | MIC [7, 12] | MIC NRS 384 (MRSA) [6, 10] | MIC E. faecium ATCC 700221 (VRE) [4, 10] | MIC ([1]; ATCC29212, 20 h) | MIC ([2]; ATCC25922, 20 h) | MIC ([3]; 20 h) | MIC ([4]; 20 h) | MIC ([5]; ATCC49619, 20 h) | MIC ([6]; 20 h) | MIC ([7]; ATCC6633, 20 h)
Cl.O=C([C@@H]1C[C@@H](O)CN1)N1CCC(n2ncc3nc(NCc4ccc(Cl)c(Cl)c4)[nH]c(=O)c32)CC1 [Compound 274, 5-((3,4-dichlorobenzyl)amino)-1-(1-((2S,4R)-4-hydroxypyrrolidine-2-carbonyl)piperidin-4-yl)-1H-pyrazolo[4,3-d]pyrimidin-7(6H)-one hydrochloride] | 64 µg/mL | > 64 µg/mL | >64 µg/mL | 32 µg/mL | 16 µg/mL | 16 µg/mL | 64 µg/mL | 16 µg/mL |  |  |  |  |  |  |  |  | 
CC(C)(C)OC(=O)N1C[C@H](O)C[C@H]1C(=O)N1CCC(n2ncc3nc(NCc4ccc(Cl)c(Cl)c4)[nH]c(=O)c32)CC1 [Compound 275, (2S,4R)-tert-Butyl 2-(4-(5-((3,4-dichlorobenzyl)amino)-7-oxo-6,7-dihydro-1H-pyrazolo[4,3-d]pyrimidin-1-yl)piperidine-1-carbonyl)-4-hydroxypyrrolidine-1-carboxylate] |  |  | >64 µg/mL |  |  |  |  |  |  |  | 16 µg/mL (≈ 26.4 µM) | > 64 µg/mL | 32 µg/mL (≈ 52.8 µM) | 8 µg/mL (≈ 13.2 µM) | 8 µg/mL (≈ 13.2 µM) | 32 µg/mL (≈ 52.8 µM) | 8 µg/mL (≈ 13.2 µM)
CN(C)CC(O)C(O)C(=O)N1CCC(n2ncc3nc(NCc4ccc(Cl)c(Cl)c4)[nH]c(=O)c32)CC1.Cl (centres unmarked) [Compound 277, 5-((3,4-dichlorobenzyl)amino)-1-(1-(4-(dimethylamino)-2,3-dihydroxybutanoyl)piperidin-4-yl)-1H-pyrazolo[4,3-d]pyrimidin-7(6H)-one hydrochloride] | 64 µg/mL | > 64 µg/mL | >64 µg/mL | > 64 µg/mL | 32 µg/mL | 16 µg/mL | 64 µg/mL | 16 µg/mL |  |  |  |  |  |  |  |  | 
Cl.O=C([C@@H]1C[C@H](O)CN1)N1CCC(n2ncc3nc(NCc4ccc(Cl)c(Cl)c4)[nH]c(=O)c32)CC1 [Compound 278, 5-((3,4-dichlorobenzyl)amino)-1-(1-((2S,4S)-4-hydroxypyrrolidine-2-carbonyl)piperidin-4-yl)-1H-pyrazolo[4,3-d]pyrimidin-7(6H)-one hydrochloride] | > 64 µg/mL | > 64 µg/mL | >64 µg/mL | > 64 µg/mL | 64 µg/mL | 32 µg/mL | > 64 µg/mL | 32 µg/mL |  |  |  |  |  |  |  |  | 
CN(C)C(CO)C(=O)N1CCC(n2ncc3nc(NCc4ccc(Cl)c(Cl)c4)[nH]c(=O)c32)CC1.Cl (centres unmarked) [Compound 279, 5-((3,4-dichlorobenzyl)amino)-1-(1-(2-(dimethylamino)-3-hydroxypropanoyl)piperidin-4-yl)-1H-pyrazolo[4,3-d]pyrimidin-7(6H)-one hydrochloride] | 16 µg/mL | > 64 µg/mL | >64 µg/mL | 32 µg/mL | 16 µg/mL | 4 µg/mL | 32 µg/mL | 4 µg/mL |  |  |  |  |  |  |  |  | 
Cl.O=C(c1cccnc1)N1CCCC(Cn2ncc3nc(NCc4ccc(Cl)c(Cl)c4)[nH]c(=O)c32)C1 (centres unmarked) [Compound 280, 5-((3,4-dichlorobenzyl)amino)-1-((1-nicotinoylpiperidin-3-yl)methyl)-1H-pyrazolo[4,3-d]pyrimidin-7(6H)-one hydrochloride] | 16 µg/mL | > 64 µg/mL | >64 µg/mL | 16 µg/mL | 8 µg/mL | 8 µg/mL | 16 µg/mL | 16 µg/mL |  |  |  |  |  |  |  |  | 
CC(=O)N1CCC(Cn2ncc3nc(NCc4ccc(Cl)c(Cl)c4)[nH]c(=O)c32)C1 (centres unmarked) [Compound 281, 1-((1-Acetylpyrrolidin-3-yl)methyl)-5-((3,4-dichlorobenzyl)amino)-1H-pyrazolo[4,3-d]pyrimidin-7(6H)-one] | 4 µg/mL (≈ 9.19 µM) | > 64 µg/mL | >64 µg/mL | 8 µg/mL (≈ 18.4 µM) | 2 µg/mL (≈ 4.59 µM) | 2 µg/mL (≈ 4.59 µM) |  | 2 µg/mL (≈ 4.59 µM) | 4/8 |  |  |  |  |  |  |  | 
Cl.O=c1[nH]c(NCc2ccc(Cl)c(Cl)c2)nc2cnn(CCOCc3nn[nH]n3)c12 [Compound 282, 1-(2-((2H-tetrazol-5-yl)methoxy)ethyl)-5-((3,4-dichlorobenzyl)amino)-1H-pyrazolo[4,3-d]pyrimidin-7(6H)-one hydrochloride] | > 64 µg/mL | > 64 µg/mL | >64 µg/mL | > 64 µg/mL | > 64 µg/mL | > 64 µg/mL | > 64 µg/mL | > 64 µg/mL |  |  |  |  |  |  |  |  | 
O=C(O)COCCn1ncc2nc(NCc3ccc(Cl)c(Cl)c3)[nH]c(=O)c21 [Compound 283, 2-[2-[5-[(3,4-dichlorophenyl)methylamino]-7-oxo-6H-pyrazolo[4,3-d]pyrimidin-1-yl]ethoxy]acetic acid] | > 64 µg/mL | > 64 µg/mL | >64 µg/mL | > 64 µg/mL | > 64 µg/mL | > 64 µg/mL | > 64 µg/mL | > 64 µg/mL |  |  |  |  |  |  |  |  | 

The next lines start with results.

MIC [1, 8] | MIC [2, 9] | MIC E. coli ATCC 25922 + 4 mM EDTA [2, 10] | MIC [3, 10] | MIC [4, 10] | MIC [5, 11] | MIC [6, 10] | MIC [7, 12] | MIC NRS 384 (MRSA) [6, 10] | MIC E. faecium ATCC 700221 (VRE) [4, 10] | SMILES | MIC ([1]; ATCC29212, 20 h) | MIC ([2]; ATCC25922, 20 h) | MIC ([3]; 20 h) | MIC ([4]; 20 h) | MIC ([5]; ATCC49619, 20 h) | MIC ([6]; 20 h) | MIC ([7]; ATCC6633, 20 h)
16 µg/mL (≈ 38.9 µM) | > 64 µg/mL | >64 µg/mL | 16 µg/mL (≈ 38.9 µM) | 8 µg/mL (≈ 19.5 µM) | 8 µg/mL (≈ 19.5 µM) | 64 µg/mL (≈ 156 µM) | 8 µg/mL (≈ 19.5 µM) |  |  | NC(=O)COCCn1ncc2nc(NCc3ccc(Cl)c(Cl)c3)[nH]c(=O)c21 [Compound 284, 2-[2-[5-[(3,4-dichlorophenyl)methylamino]-7-oxo-6H-pyrazolo[4,3-d]pyrimidin-1-yl]ethoxy]acetamide] |  |  |  |  |  |  | 
4 µg/mL (≈ 10.2 µM) | > 64 µg/mL | >64 µg/mL | 4 µg/mL (≈ 10.2 µM) |  | 4 µg/mL (≈ 10.2 µM) |  | 1 µg/mL (≈ 2.54 µM) | 4/4 | 2/2 | N#CCOCCn1ncc2nc(NCc3ccc(Cl)c(Cl)c3)[nH]c(=O)c21 [Compound 285, 2-(2-(5-((3,4-dichlorobenzyl)amino)-7-oxo-6,7-dihydro-1H-pyrazolo[4,3-d]pyrimidin-1-yl)ethoxy)acetonitrile] |  |  |  |  |  |  | 
4 µg/mL (≈ 9.99 µM) | > 64 µg/mL | >64 µg/mL | 8 µg/mL (≈ 20 µM) | 2 µg/mL (≈ 5 µM) | 4 µg/mL (≈ 9.99 µM) | 8 µg/mL (≈ 20 µM) | 4 µg/mL (≈ 9.99 µM) |  |  | [2H]C([2H])(O)COCCn1ncc2nc(NCc3ccc(Cl)c(Cl)c3)[nH]c(=O)c21 [Compound 286, 5-[(3,4-dichlorophenyl)methylamino]-1-[2-(2,2-dideuterio-2-hydroxyl-ethoxy)ethyl]-6H-pyrazolo[4,3-d]pyrimidin-7-one] |  |  |  |  |  |  | 
8 µg/mL (≈ 18.8 µM) | > 64 µg/mL | >64 µg/mL | 4 µg/mL (≈ 9.38 µM) |  | 16 µg/mL (≈ 37.5 µM) |  | 2 µg/mL (≈ 4.69 µM) | 4/4 | 4/4 | COC(=O)COCCn1ncc2nc(NCc3ccc(Cl)c(Cl)c3)[nH]c(=O)c21 [Compound 287, methyl 2-(2-(5-((3,4-dichlorobenzyl)amino)-7-oxo-6,7-dihydro-1H-pyrazolo[4,3-d]pyrimidin-1-yl)ethoxy)acetate] |  |  |  |  |  |  | 
32 µg/mL (≈ 70.6 µM) | > 64 µg/mL | >64 µg/mL | 32 µg/mL (≈ 70.6 µM) | 16 µg/mL (≈ 35.3 µM) | 16 µg/mL (≈ 35.3 µM) | 32 µg/mL (≈ 70.6 µM) | 8 µg/mL (≈ 17.6 µM) |  |  | O=c1[nH]c(NCc2ccc(Cl)c(Cl)c2)nc2cnn(CC(CO)N3CCOCC3)c12 (centres unmarked) [Compound 288, 5-[(3,4-dichlorophenyl)methylamino]-1-(3-hydroxy-2-morpholino-propyl)-6H-pyrazolo[4,3-d]pyrimidin-7-one] |  |  |  |  |  |  | 
16 µg/mL (≈ 35.3 µM) | > 64 µg/mL | >64 µg/mL | 32 µg/mL (≈ 70.6 µM) | 8 µg/mL (≈ 17.6 µM) | 8 µg/mL (≈ 17.6 µM) | 32 µg/mL (≈ 70.6 µM) | 8 µg/mL (≈ 17.6 µM) |  |  | O=c1[nH]c(NCc2ccc(Cl)c(Cl)c2)nc2cnn(CC(O)CN3CCOCC3)c12 (centres unmarked) [Compound 289, 5-[(3,4-dichlorophenyl)methylamino]-1-(2-hydroxy-3-morpholino-propyl)-6H-pyrazolo[4,3-d]pyrimidin-7-one] |  |  |  |  |  |  | 
16 µg/mL (≈ 41.9 µM) | > 64 µg/mL | >64 µg/mL | 32 µg/mL (≈ 83.7 µM) | 8 µg/mL (≈ 20.9 µM) | 16 µg/mL (≈ 41.9 µM) | 16 µg/mL (≈ 41.9 µM) | 8 µg/mL (≈ 20.9 µM) |  |  | O=C(CO)Cn1ncc2nc(NCc3ccc(Cl)c(Cl)c3)[nH]c(=O)c21 [Compound 290, 5-((3,4-dichlorobenzyl)amino)-1-(3-hydroxy-2-oxopropyl)-1H-pyrazolo[4,3-d]pyrimidin-7(6H)-one] |  |  |  |  |  |  | 

Reference: patent publication US10723741B1, “DNA polymerase IIIC inhibitors and use thereof” (Acurx Pharmaceuticals, LLC, priority 2018, dated 2020)
